Experimental data as given in patent US12201628B2, “Neuronal modulation” (priority 2013, dated 2025).
“Also recorded” adds a separate entry of the source.

Assays:
[1] = test system: VTA dopaminergic neurons; assay: Conditional place preference (CPP) paradigm; assay type: in vivo, mice; conditions: CNO 2.5 mg/kg
Protocol: All behavioral tests were conducted during the same circadian period. The conditional place preference (CPP) test was performed in a rectangular cage with two chambers (25 cm×25 cm each), with a corridor (5 cm×5 cm) connecting the two chambers. The chambers differed in their visual cues and were designed so that mice will have no bias for a particular chamber. The CPP paradigm consisted of four sessions over four days and was conducted 30 days after the viral stereotactic injection. On day 1, individual mice were placed in the connecting corridor (in the same direction) and allowed to freely explore the entire apparatus for 15 minutes (pre-test). On day 2, mice were IP injected with CNO (2.5 mg/kg, Sigma-Aldrich) diluted in sterile saline in order to activate the VTA dopaminergic neurons and then the mice were confined to one of the chambers for 30 min. On day 3, mice were confined to the other chamber for 30 min, 10 min after an injection of sterile saline. On day 4, mice were placed in the center chamber and allowed to freely explore the entire apparatus for 15 minutes (post-test). To calculate the level of preference, the relative time (%) the mouse spent during post-test in the conditioned chamber (the chamber where it received the CNO injection) was divided by the relative time (%) the mouse spent in this chamber during the pre-test (post/pre ratio). Of note, mice in both groups were injected with CNO to control for the potential effects of CNO. The analysis was performed automatically using EthoVision software.
Behavioral analysis (conditioned place preference; CPP): Three groups of mice were used in this experiment: mice injected with AAV virus encoding the hM3D (Gq), hM4D (Gi) or control carrying only mCherry. On day 1 the mice were given a chance to explore the apparatus for 5 minutes. […] At this stage the mice were only allowed access to one compartment of the apparatus and remains in the compartment for 30 minutes. Day 3: Mice were confounded to the other compartment. […] Time spent in each compartment was measured by motion detecting software (EthoVision). […]

[2] = test system: immune populations in the spleen; assay: CyTOF of spleen after VTA DA activation and LPS injection; assay type: in vivo, mice; conditions: spleen 24 h after VTA DA activation and LPS injection; Gq vs control
Protocol: FIGS. 3A-3E. Are graphs showing the effects of VTA DA neurons activation on a numbers of defined immune populations in the spleen as determined by CyTOF. FIG. 3A is an experimental timeline: spleens were collected from control and Gq mice 24 h after VTA DA activation and LPS injection (5 ug/kg). […] The individual ions were counted and then parsed into a flow cytometry file format. This file can be analyzed by traditional flow cytometry software or by SPADE, which allows integrating the complex information. SPADE analysis is composed of several steps: A density-dependent down-sampling of the original data is clustered. Adjacent clusters are drawn in alternating colors. Minimum spanning tree that connects the cell clusters is generated and color-coded. Nodes are colored by the number of cells in each cluster (7-547 cells). This allows visualization of the changes in the various immune populations. Cluster of CD8, CD4, NK B cell and monocytes are indicated.
CyTOF mass cytometry: Single-cell suspensions of cells from the blood/bone marrow/spleen/lymph nodes of the treated mice are stained with monoclonal or polyclonal antibodies, conjugated to metal probes. […]

[3] = mice; cited from earlier work

Q: For `C[N+]1([O-])CCN(C2=Nc3cc(Cl)ccc3Nc3ccccc32)CC1` [CNO, clozapine-N-oxide], which “preference for conditioned chamber (CPP)” value ([1]; Gi (hM4D) mice) is on record?
A: avoided the conditioned chamber

Q: And the “preference for conditioned chamber (CPP)” value ([1]; Gq (hM3D, VTA-activated) mice)?
A: exhibited a preference for the conditioned chamber; also recorded: increased preference to the conditioned chamber; also recorded: strong preference towards the chamber in which they were injected with CNO

Q: And the “preference for conditioned chamber (CPP)” value ([1]; control mice (mCherry only virus))?
A: no such bias; also recorded: did not show a clear preference to any single chamber

Q: What about the “levels of CD69” value [2] of the same compound?
A: No change was detected

Q: And the “conversion of CNO to clozapine” value [3]?
A: does not convert to clozapine
